Data: paper PMC12655637, “Design, Synthesis, and Mechanistic Study of Novel Ciprofloxacin/Thiazole Chalcone Hybrids as Potential Anticancer Agents” (Pharmaceuticals, 2025)

Tests used:
Experiment in all cases: NCI-60 screening, one-dose (10 µM) and five-dose, SRB
CCRF-CEM = type: cell-based, human
K-562 = type: cell-based, human; settings: five-dose, K-562
MOLT-4 = type: cell-based, human
SR = type: cell-based, human; settings: five-dose
A549/ATCC = type: cell-based, human
EKVX = type: cell-based, human; settings: Homo sapiens, 10 μM, Non-Small-Cell Lung Cancer, read-out: Growth percentage
HOP-92 = type: cell-based, human
NCI-H23 = type: cell-based, human
HCC-2998 = type: cell-based, human
HCT-116 = type: cell-based, human; settings: Homo sapiens
HCT-15 = type: cell-based, human
HT29 = type: cell-based, human
KM12 = type: cell-based, human; settings: five-dose, KM12
SF-295 = type: cell-based, human
SF-539 = type: cell-based, human
SNB-75 = type: cell-based, human
U251 = type: cell-based, human
MDA-MB-435 = type: cell-based; settings: MDA-MB-435
OVCAR-5 = type: cell-based, human; settings: five-dose, OVCAR-5
NCI/ADR-RES = type: cell-based, human
SK-OV-3 = type: cell-based, human
A498 = type: cell-based
ACHN = type: cell-based, human
RXF 393 = type: cell-based; settings: Homo sapiens; 10 μM; RXF 393, Renal Cancer; read-out: Growth percentage
TK-10 = type: cell-based, human
PC-3 = type: cell-based, human
MDA-MB231/ATCC = type: cell-based
HS 578T = type: cell-based, human
BT-549 = type: cell-based
T-47D = type: cell-based, human; settings: five-dose
MDA-MB-468 = type: cell-based, human; settings: five-dose, MDA-MB-468
From the text: Control cells Test cells FLD
available usually at NCI library.
An aliquot of frozen drug concentrate is […]

[1] = Homo sapiens, five-dose, read-out: LC50 (the source's name)
[2] = Homo sapiens, five-dose, MOLT-4
[3] = Homo sapiens, read-out: LC50 (the source's name)
[4] = Homo sapiens, five-dose, HOP-92
[5] = Homo sapiens, five-dose, NCI-H23
[6] = Homo sapiens, five-dose, HCC-2998
[7] = Homo sapiens, five-dose, HCT-15
[8] = Homo sapiens, HT-29, five-dose, HT29
[9] = Homo sapiens, five-dose, SF-295
[10] = Homo sapiens, five-dose, SF-539
[11] = Homo sapiens, five-dose, SNB-75
[12] = Homo sapiens, U-251, five-dose, U251
[13] = Homo sapiens, five-dose, BT-549

Cc1nc(SCC(=O)N2CCN(c3cc4c(cc3F)c(=O)c(C(=O)O)cn4C3CC3)CC2)sc1C(=O)/C=C/c1cccc(Cl)c1 [Compound 4b, (E)-7-(4-(2-((5-(3-(3-Chlorophenyl)acryloyl)-4-methylthiazol-2-yl)thio)acetyl)piperazin-1-yl)-1-cyclopropyl-6-fluoro-4-oxo-1,4-dihydroquinoline-3-carboxylic Acid]
activity at 10 µM (CCRF-CEM; Homo sapiens, 10 μM, Leukemia, read-out: Growth percentage): 49.7%
GI50 (CCRF-CEM; Homo sapiens, five-dose): 6.9 µM
IC50 (CCRF-CEM; Homo sapiens, five-dose): 11.7 µM
CC50 (CCRF-CEM; [1]): > 100 µM
TGI (CCRF-CEM; five-dose): 31.6 µM
GI50 (K-562; Homo sapiens, K562): 4.2 µM
IC50 (K-562; Homo sapiens, K562): 4.9 µM
CC50 (K-562; Homo sapiens, K562, read-out: LC50 (the source's name)): > 100 µM
TGI (K-562): 100.0 µM
activity at 10 µM (MOLT-4; Homo sapiens, 10 μM, MOLT-4, Leukemia, read-out: Growth percentage): 66.1%
GI50 (MOLT-4; [2]): 12.9 µM
IC50 (MOLT-4; [2]): 21.9 µM
LC50 (concentration killing 50% of cells) (MOLT-4; [2]): 56.2 µM
TGI (MOLT-4; five-dose, MOLT-4): 26.9 µM
GI50 (SR; Homo sapiens): 1.8 µM
IC50 (SR; Homo sapiens): 3.2 µM
CC50 (SR; [3]): 9.1 µM
TGI (SR): 4.1 µM
activity at 10 µM (A549/ATCC; Homo sapiens, 10 μM, Non-Small-Cell Lung Cancer, read-out: Growth percentage): 82.4%
GI50 (A549/ATCC; Homo sapiens, five-dose): > 100 µM
IC50 (A549/ATCC; Homo sapiens, five-dose): > 100 µM
CC50 (A549/ATCC; [1]): > 100 µM
TGI (A549/ATCC; five-dose): 100.0 µM
activity at 10 µM (EKVX): 83.9%
activity at 10 µM (HOP-92; Homo sapiens, 10 μM, HOP-92, Non-Small-Cell Lung Cancer, read-out: Growth percentage): 101%
GI50 (HOP-92; [4]): 44.7 µM
IC50 (HOP-92; [4]): > 100 µM
LC50 (concentration killing 50% of cells) (HOP-92; [4]): > 100 µM
TGI (HOP-92; five-dose, HOP-92): 100.0 µM
activity at 10 µM (NCI-H23; Homo sapiens, 10 μM, NCI-H23, Non-Small-Cell Lung Cancer, read-out: Growth percentage): 54%
GI50 (NCI-H23; [5]): > 100 µM
IC50 (NCI-H23; [5]): > 100 µM
LC50 (50% lethal concentration) (NCI-H23; [5]): > 100 µM
TGI (NCI-H23; five-dose, NCI-H23): 100.0 µM
activity at 10 µM (HCC-2998; Homo sapiens, 10 μM, HCC-2998, Colon Cancer, read-out: Growth percentage): 25.6%
GI50 (HCC-2998; [6]): 1.2 µM
IC50 (HCC-2998; [6]): 2.2 µM
TGI (HCC-2998; five-dose, HCC-2998): 2.9 µM
activity at 10 µM (HCT-116; HCT-116, 10 μM, HCT-116, Colon Cancer, read-out: Growth percentage): 2.8%
GI50 (HCT-116; five-dose, HCT-116): 0.2 µM
IC50 (HCT-116; five-dose, HCT-116): 0.3 µM
activity at 10 µM (HCT-15; Homo sapiens, 10 μM, HCT-15, Colon Cancer, read-out: Growth percentage): 26.9%
IC50 (HCT-15; [7]): > 100 µM
LC50 (50% lethal concentration) (HCT-15; [7]): > 100 µM
TGI (HCT-15; five-dose, HCT-15): 100.0 µM
activity at 10 µM (HT29; Homo sapiens, HT-29, 10 μM, HT29, Colon Cancer, read-out: Growth percentage): 24.4%
GI50 (HT29; [8]): > 100 µM
IC50 (HT29; [8]): > 100 µM
CC50 (HT29; Homo sapiens, HT-29, five-dose, HT29, read-out: LC50 (the source's name)): > 100 µM
TGI (HT29; five-dose, HT29): 100.0 µM
GI50 (KM12; Homo sapiens): 0.9 µM
IC50 (KM12; Homo sapiens): 1.3 µM
LC50 (KM12; Homo sapiens): 9.3 µM
TGI (KM12): 3.0 µM
activity at 10 µM (SF-295; Homo sapiens, 10 μM, SF-295, CNS Cancer, read-out: Growth percentage): 93.3%
GI50 (SF-295; [9]): > 100 µM
IC50 (SF-295; [9]): > 100 µM
CC50 (SF-295; Homo sapiens, five-dose, SF-295, read-out: LC50 (the source's name)): > 100 µM
TGI (SF-295; five-dose, SF-295): 100.0 µM
activity at 10 µM (SF-539; Homo sapiens, SF-539, 10 μM, SF-539, CNS Cancer, read-out: Growth percentage): 22.1%
GI50 (SF-539; [10]): 3.7 µM
IC50 (SF-539; [10]): 15.1 µM
CC50 (SF-539; Homo sapiens, five-dose, SF-539, read-out: LC50 (the source's name)): > 100 µM
TGI (SF-539; five-dose, SF-539): 61.7 µM
activity at 10 µM (SNB-75; Homo sapiens, 10 μM, SNB-75, CNS Cancer, read-out: Growth percentage): 102%
GI50 (SNB-75; [11]): 28.8 µM
IC50 (SNB-75; [11]): > 100 µM
CC50 (SNB-75; Homo sapiens, five-dose, SNB-75, read-out: LC50 (the source's name)): > 100 µM
TGI (SNB-75; five-dose, SNB-75): 77.6 µM
activity at 10 µM (U251; Homo sapiens, U-251, 10 μM, U251, CNS Cancer, read-out: Growth percentage): 41.9%
GI50 (U251; [12]): 34.7 µM
IC50 (U251; [12]): > 100 µM
CC50 (U251; Homo sapiens, U-251, five-dose, U251, read-out: LC50 (the source's name)): > 100 µM
TGI (U251; five-dose, U251): 100.0 µM
GI50 (MDA-MB-435; Homo sapiens): 3.5 µM
IC50 (MDA-MB-435; Homo sapiens): 7.4 µM
CC50 (MDA-MB-435; [1]): > 100 µM
TGI (MDA-MB-435; five-dose): 52.5 µM
GI50 (OVCAR-5; Homo sapiens): > 100 µM
IC50 (OVCAR-5; Homo sapiens): > 100 µM
CC50 (OVCAR-5; [3]): > 100 µM
TGI (OVCAR-5): 100.0 µM
activity at 10 µM (NCI/ADR-RES; Homo sapiens, 10 μM, Ovarian Cancer, read-out: Growth percentage): 112%
GI50 (NCI/ADR-RES; Homo sapiens, five-dose): > 100 µM
IC50 (NCI/ADR-RES; Homo sapiens, five-dose): > 100 µM
CC50 (NCI/ADR-RES; [1]): > 100 µM
TGI (NCI/ADR-RES; five-dose): 100.0 µM
activity at 10 µM (SK-OV-3; Homo sapiens, 10 μM, SK-OV-3, Ovarian Cancer, read-out: Growth percentage): 46.3%
IC50 (SK-OV-3; Homo sapiens, five-dose, SK-OV-3): > 100 µM
CC50 (SK-OV-3; Homo sapiens, five-dose, SK-OV-3, read-out: LC50 (the source's name)): > 100 µM
TGI (SK-OV-3; five-dose, SK-OV-3): 100.0 µM
activity at 10 µM (A498; Homo sapiens, A498, 10 μM, A498, Renal Cancer, read-out: Growth percentage): 36%
GI50 (A498; Homo sapiens, five-dose, A498): > 100 µM
IC50 (A498; Homo sapiens, five-dose, A498): > 100 µM
CC50 (A498; Homo sapiens, five-dose, A498, read-out: LC50 (the source's name)): > 100 µM
TGI (A498; five-dose, A498): 100.0 µM
activity at 10 µM (ACHN; Homo sapiens, 10 μM, Renal Cancer, read-out: Growth percentage): 99.1%
GI50 (ACHN; Homo sapiens, five-dose): > 100 µM
IC50 (ACHN; Homo sapiens, five-dose): > 100 µM
CC50 (ACHN; [1]): > 100 µM
TGI (ACHN; five-dose): 100.0 µM
activity at 10 µM (RXF 393): -8.1%
activity at 10 µM (TK-10; Homo sapiens, 10 μM, TK-10, Renal Cancer, read-out: Growth percentage): 108%
GI50 (TK-10; Homo sapiens, five-dose, TK-10): > 100 µM
IC50 (TK-10; Homo sapiens, five-dose, TK-10): > 100 µM
CC50 (TK-10; Homo sapiens, five-dose, TK-10, read-out: LC50 (the source's name)): > 100 µM
TGI (TK-10; five-dose, TK-10): 100.0 µM
activity at 10 µM (PC-3; Homo sapiens, 10 μM, PC-3, Prostate Cancer, read-out: Growth percentage): 74.1%
GI50 (PC-3; Homo sapiens, five-dose, PC-3): 55 µM
IC50 (PC-3; Homo sapiens, five-dose, PC-3): > 100 µM
CC50 (PC-3; Homo sapiens, five-dose, PC-3, read-out: LC50 (the source's name)): > 100 µM
TGI (PC-3; five-dose, PC-3): 100.0 µM
GI50 (MDA-MB231/ATCC; Homo sapiens, MDA-MB-231): > 100 µM
IC50 (MDA-MB231/ATCC; Homo sapiens, MDA-MB-231): > 100 µM
CC50 (MDA-MB231/ATCC; Homo sapiens, five-dose, MDA-MB-231/ATCC, read-out: LC50 (the source's name)): > 100 µM
TGI (MDA-MB231/ATCC; five-dose, MDA-MB-231/ATCC): 100.0 µM
activity at 10 µM (HS 578T; Homo sapiens, 10 μM, Breast Cancer, read-out: Growth percentage): 61.5%
GI50 (HS 578T; Homo sapiens, five-dose): 18.6 µM
IC50 (HS 578T; Homo sapiens, five-dose): 70.8 µM
CC50 (HS 578T; [1]): > 100 µM
TGI (HS 578T; five-dose): 75.9 µM
activity at 10 µM (BT-549; Homo sapiens, 10 μM, BT-549, Breast Cancer, read-out: Growth percentage): -62.2%
GI50 (BT-549; [13]): 15.8 µM
IC50 (BT-549; [13]): 35.5 µM
CC50 (BT-549; Homo sapiens, five-dose, BT-549, read-out: LC50 (the source's name)): 85.1 µM
TGI (BT-549; five-dose, BT-549): 36.3 µM
GI50 (T-47D; Homo sapiens, T47D): > 100 µM
IC50 (T-47D; Homo sapiens, T47D): > 100 µM
CC50 (T-47D; Homo sapiens, T47D, read-out: LC50 (the source's name)): > 100 µM
TGI (T-47D): 100.0 µM
GI50 (MDA-MB-468; Homo sapiens): 3.9 µM
IC50 (MDA-MB-468; Homo sapiens): > 100 µM
CC50 (MDA-MB-468; [3]): > 100 µM
TGI (MDA-MB-468): 15.5 µM
